These results are taken from patent US4761408A, “Crystalline aminomethyl compound” (priority 1984, dated 1988).

Broadly, the ED50 is the dose at which the effect has come halfway, by size or by number of responders. Broadly, the MIC is the lowest concentration found to suppress growth.

In data set [1] the test system is Staphylococcus aureus, Escherichia coli or Streptococcus pyogenes. As to the kind of experiment: systemic infection of mice. Type of data set: in vivo. The note with it: sc, parenteral, such as subcutaneous, administration.
Data set [2] relates to Streptococcus pyrogenes Aronson 1129. In words: in vitro MIC. Format: cell-based. Conditions: ARONSON1129.
Data set [3] can be described thus: stability to storage of the solid product. Type of data set: physicochemical.
A short description of data set [4]: stability to the enzyme dehydropeptidase from human kidneys. Format: in vitro ADME. Conditions: kidney dehydropeptidase, read-out: t1/2 (stability to dehydropeptidase) (converted). From the text: Compounds A and B have the following stability (expressed in half-life periods t1/2) to the enzyme dehydropeptidase from human kidneys: […]
Data set [5] deals with Escheichia coli 205 R + TEM. In words: in vitro MIC. Conditions: read-out: in vitro MIC. Type of data set: cell-based.
The nature of data set [6]: Determination of the thermal stability (50°, HPLC penem content). Format: physicochemical. The protocol:
In order to determine the thermal stability, samples of crystalline (5R,6S)-2-aminomethyl-6-[(1R)-1-hydroxyethyl)-2-penem-3-carboxylic acid and amorphous racemic (5R,6S,1'R and 5S,6R,1'S)-2-aminomethyl-6-(1'-hydroxyethyl)-2-penem-3-carboxylic acid previously known from German Offenlegungsschrift No. 2 950 898 are used.
20 mg samples are weighed in glass tubes. The glass tubes are sealed firmly with PVC stoppers and heated in a thermostatted oil bath at 50°. At regular intervals individual glass tubes are removed from the oil bath, the samples are dissolved in 100 ml of doubly distilled water and the penem content is determined by means of HPLC analysis [UV detector: Kratos, 305 nm; injection machine: Wisp; 20 μl charge; integrator: Shimazu, C-R3A; pump: Altex, 2.0 ml/minute; column: Knauer, 25 cm×4 mm, C18 /10 um; eluant: acetonitrile/water 2:98, pH5].

[7] abbreviates: Day 0, 50°, solid in sealed glass tube.

Each structure is given as a SMILES string. Values after ≈ are worked out from the molar mass of the structure shown.

In the case of `C[C@@H](O)[C@H]1C(=O)N2C(C(=O)O)=C(CN)S[C@H]12` [Compound A, (5R,6S)-2-aminomethyl-6-[(1R)-1-hydroxyethyl]-2-penem-3-carboxylic acid], the ED50 in data set [1] lay in the range of 0.3 to 30 mg/kg. The MIC in data set [2] came to 0.2 µg/mL (≈ 0.819 µM); in data set [5], 4 µg/mL (≈ 16.4 µM). In data set [3] (approximately normal ambient conditions), the “absorption of water from the air” value is reported as “no tendency to absorb relatively large quantities of water from the air”. Also, the “stability under light, heat and air” value in data set [3] (relatively long-term action of light, heat (50° C.) and air) is reported as “very stable”. Also, in data set [4], the half-life is 6.75 h. Besides, the Penem content entry in data set [6] (setting [7]) was “approx. 100%”; in data set [6] (Day 1.8, 50°, 2592 min), 99%; in data set [6] (Day 3, 50°, 4320 min) it was 98%; in data set [6] (Day 4.5, 50°, 6480 min), 97%; in data set [6] (Day 7, 50°, 10080 min) it was 95%; in data set [6] (Day 9, 50°, 12960 min) it was 94%. For the same molecule, the Penem content was 92% in data set [6] (Day 12, 50°, 17280 min) and 91% in data set [6] (Day 14, 50°, 20160 min).

On to `C[C@@H](O)[C@H]1C(=O)N2C(C(=O)O)=C(CN)S[C@H]12` (relative stereo) [Compound B, (1'R,5R,6S+1'S,5S,6R)-2-aminomethyl-6-(1'-hydroxyethyl)-2-penem-3-carboxylic acid, reference compound], for which the MIC turned out to be 0.5 µg/mL (≈ 2.05 µM) in data set [2] and 8 µg/mL (≈ 32.8 µM) in data set [5]. The Penem content entry is recorded as “approx. 100%” in data set [6] (setting [7]); 84% in data set [6] (Day 1.8, 50°, 2592 min); 78% in data set [6] (Day 3, 50°, 4320 min); 73% in data set [6] (Day 4.5, 50°, 6480 min); 67% in data set [6] (Day 7, 50°, 10080 min); 64% in data set [6] (Day 9, 50°, 12960 min). The Penem content in data set [6] (Day 12, 50°, 17280 min) was 63%; in data set [6] (Day 14, 50°, 20160 min), 62%.
